Laboratory results reported in US20170029388A1, “Treatment of Neurodegenerative Diseases with Asparagine Endopeptidase (AEP) Inhibitors and Compositions Related Thereto” (INTERCONTINENTAL GREAT BRANDS LLC, priority 2014, published 2017).

Assays:
[1] = biological target: T1, AEP in human B lymphoblastoid Pala cells (Homo sapiens, UniProt Q99538); experiment: IC50 assays in intact Pala cells; format: cell-based; conditions: 2 hr incubation, residual AEP activity in lysate
T1 construct: human B lymphoblastoid pala cells, which are rich in endogenous AEP; endogenous in cells; host or cells: Pala cells (human B lymphoblastoid)
Procedure: The cells were incubated with inhibitors for 2 hrs then cells washed, harvested and lysed and the residual enzymatic activity was determined. Lysate was normalized by Bradford assay and the experiment was performed in triplicate and the mean results and SEM were plotted.
In an attempt to assess the activity of the compounds in intact cells, the compounds were incubated with human B lymphoblastoid pala cells, which are rich in endogenous AEP and have been used for inhibiting AEP in cellular assay.
Human B Lymphoblastoid Pala cells, which express high concentrations of AEP, were cultured in RPMI-1640, supplemented with 10% FBS, 2 mM L-Glutamine, 100 units/mL Penicillin, 100 μg/mL Streptomycin. Various concentrations of each compound were incubated with the Pala cells for 2 hr at 37° C. Cells were collected, washed twice with PBS and lysed in Lysis Buffer (20 mM Citric Acid, 60 mM Disodium Hydrogen Orthophosphate, 1 mM EDTA, 0.1% CHAPS, pH 5.8). The protein concentrations were normalized by Bradford assay and lysates were assayed with 5 μ,M Cbz-Ala-Ala-Asn-AMC. […] Data were analyzed with GraFit version 5.0.11 software package.

AEP = biological target: T2, AEP (Homo sapiens, UniProt Q99538); experiment: DTT reversibility assay; format: biochemical; conditions: 5x IC50 of compound, 10 mM DTT or L-cysteine
T2 construct: tested with purified active AEP, IC50 values for the top 8 candidates were found; purchased Sino Biological
T2 sequence (Q99538 18-323 limits assumed): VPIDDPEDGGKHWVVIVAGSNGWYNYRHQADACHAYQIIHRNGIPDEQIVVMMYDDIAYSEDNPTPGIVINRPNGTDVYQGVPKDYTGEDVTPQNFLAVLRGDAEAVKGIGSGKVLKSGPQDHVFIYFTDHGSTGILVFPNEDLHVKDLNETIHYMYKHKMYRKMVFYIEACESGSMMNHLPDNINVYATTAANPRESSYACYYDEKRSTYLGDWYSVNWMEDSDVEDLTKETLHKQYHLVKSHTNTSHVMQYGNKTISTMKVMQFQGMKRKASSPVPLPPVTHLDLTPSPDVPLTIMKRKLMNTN
Procedure: AEP was reacted with specified inhibitor, after 15 min 10 mM DTT or L-cysteine was added to the reaction and the fluorescent signal was read for an additional 15 min. At the end of the second 15 min incubation, the percentage of product formed in the presence of each compound was determined in comparison to the DMSO control reaction.
Although it is not intended that embodiments of this disclosure be limited by any particular mechanism, to gain additional insight into the mechanism utilized by the inhibitors for abrogation of AEP activity, their reversibility in the presence of free thiols was determined. The addition of a strong reducing agent, such as DTT, or a weaker reducing agent, L-cysteine, to an inhibited reaction can be used to out-compete the inhibitory agent and restore catalytic activity to an enzyme with an active-site thiol residue. Here, a similar approach was used by adding a reducing agent, either DTT or L-cysteine, to a reaction, in which AEP had been incubated with a specified inhibitor, in an attempt to reverse the effects of the inhibitor. […] For compounds BB1 and 38, this increase in enzymatic activity may be due to the reduction of a disulfide linkage between the inhibitor and the enzyme, since these compounds contain thiols. Compound 10 contains a thiocyanate and may undergo nucleophilic attack by the enzyme's active-site thiolate to form a thioimidate enzyme-inhibitor complex. Under acidic conditions, this complex is reducible by either a strong reducing agent, such as DTT, or the weaker L-cysteine.
Simultaneously, 10 mM (final concentration) dithiothreitol (DTT) or L-cysteine was added to each reaction and incubated for an additional 15 min. At the end of the second 15 min incubation time, the fluorescence was measured for each sample. The amount of product formed in the presence of DMSO was used to determine the percentage of AEP activity in the presence of each drug.

[2] = tested on: cleavage of the amyloid precursor protein (APP); experiment: OGD in primary cortical neurons, APP cleavage (immunoblot); format: cell-based
Procedure: A. AEP activity, measured in primary neuronal cultures with 5 μM Cbz-Ala-Ala-Asn-AMC (x-axis denotes neurons were treated with 0.1 μM or 1.0 μM specified compound). B. Caspase activity, measured in primary neuronal cultures with 5 μM Ac-Asp-Glu-Val-Asp-AMC. C. Cathepsin activity, measured in primary neuronal cultures with 5 μM D-Val-Leu-Lys-AMC. D. Inhibition of APP cleavage. Lysates of primary cortical neurons pre-incubated with compounds for 30 min, underwent OGD for 4 hrs, were reperfused for 18 hrs (normoxia neurons remained at normoxic conditions). E. APP can be cleaved in a dose-dependent manner. Lysates of primary cortical neurons pre-incubated with compounds for 30 min, underwent OGD for 4 hrs, were reperfused for 18 hrs (normoxia neurons remained at normoxic conditions).
Depriving cells of oxygen and glucose is a cellular model that is employed to trigger acidosis in cultured cells. The efficacy of the compounds in a cellular model of oxygen-glucose deprivation (OGD) was determined in an effort to mimic the effects of stroke in primary cultured neurons. As a result of depriving neurons of oxygen and glucose-containing medium, AEP activity was doubled (FIG. 7A, ‘DMSO-Norm’ compared to ‘DMSO-OGD’), while Caspase-3 and Cathepsin activities remained relatively unchanged. […] Cleavage of APP is observed in response to only DMSO treatment (FIG. 7D, lane 2), and it appears that upon the treatment of 1 μM of compounds 10, 11, and 12, and just 0.1 μM of compounds 31, 38 and 64, the cleavage was blocked, presumably due to AEP inhibition.
Compounds were pre-incubated with primary culture neurons, DIV13, for 30 min. The medium was exchanged for glucose-free DMEM and neurons were de-gased and incubated at 37° C., 95% N2/5% CO2 for 4 hrs with compounds. The medium was exchanged for DMEM and supplemented with compounds, then neurons were reperfused for 18 hrs under normoxic conditions. The neuronal lysates were prepared for AEP, Caspase-3 and Cathepsin assays. Moreover, immunoblotting analysis was conducted with the neuronal lysates using anti-APP, anti-AEP antibodies.

Caco-2 monolayer = Caco-2 monolayer permeability screen; format: in vitro ADME
Procedure: To explore the in vitro ADME profiles of the compounds, additional tests were conducted.

CYP3A4 = CYP3A4 (Homo sapiens, UniProt P08684); experiment: CYP inhibition screening, CYP3A4-Midazolam; format: in vitro ADME
CYP3A = experiment: CYP inhibition screening, CYP3A-Testosterone; format: in vitro ADME
CYP2C9 = CYP2C9 (Homo sapiens, UniProt P11712); experiment: CYP inhibition screening, CYP2C9; format: in vitro ADME
CYP2D6 = CYP2D6 (Homo sapiens, UniProt P10635); experiment: CYP inhibition screening, CYP2D6; format: in vitro ADME
CYP2C19 = CYP2C19 (Homo sapiens, UniProt P33261); experiment: CYP inhibition screening, CYP2C19; format: in vitro ADME
CYP1A2 = biological target: T3, CYP1A2 (Homo sapiens, UniProt P05177); experiment: CYP inhibition screening, CYP1A2; format: in vitro ADME
T3 sequence (P05177 1-516): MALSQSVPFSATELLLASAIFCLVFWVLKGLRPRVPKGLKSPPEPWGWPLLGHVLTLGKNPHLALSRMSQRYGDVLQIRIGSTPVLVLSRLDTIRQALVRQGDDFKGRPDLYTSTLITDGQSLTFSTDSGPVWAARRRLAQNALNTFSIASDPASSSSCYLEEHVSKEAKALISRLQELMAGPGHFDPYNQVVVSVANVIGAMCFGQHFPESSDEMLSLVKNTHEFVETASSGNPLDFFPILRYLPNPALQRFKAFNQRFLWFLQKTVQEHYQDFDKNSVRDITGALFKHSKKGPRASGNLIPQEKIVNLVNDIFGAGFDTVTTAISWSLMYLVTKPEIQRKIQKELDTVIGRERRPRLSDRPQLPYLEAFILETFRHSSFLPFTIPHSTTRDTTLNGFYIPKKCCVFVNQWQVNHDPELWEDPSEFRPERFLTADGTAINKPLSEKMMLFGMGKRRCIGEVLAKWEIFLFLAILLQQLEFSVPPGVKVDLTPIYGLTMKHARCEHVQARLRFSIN

[3] = PAMPA
[4] = Liver microsomal stability, human; conditions: human liver microsomes
[5] = Liver microsomal stability, mouse; conditions: mouse liver microsomes
purified human AEP = biological target: T4, purified human AEP (Homo sapiens, UniProt Q99538); experiment: AEP enzymatic assay with purified active enzyme (IC50); format: biochemical; conditions: purified recombinant enzyme; read-out: IC50 toward AEP
T4 construct: tested with purified active AEP, IC50 values for the top 8 candidates were found; purchased Sino Biological
T4 sequence (Q99538 18-323 limits assumed): T2 sequence (Q99538 18-323 limits assumed)
Procedure: FIG. 1 illustrates a high-throughput screening scheme. […] The hits were validated further with purified human AEP, and promising compounds were categorized into 8 groups. Compounds from each group were tested and the cytotoxicity and specificity were determined.
(§1) Purified recombinant enzyme was incubated with various concentrations of inhibitor in appropriate assay buffers in the presence of increasing concentrations of inhibitor. The formation of fluorescent product was monitored in duplicate reactions and the data was fit to appropriate equations to calculate the IC50 values.
(§2) To identify small-molecule inhibitors of AEP, a high-throughput screen was designed in conjunction with the Emory Chemical Biology Discovery Center. The screen incorporated mouse kidney lysates to assay a 54,384 compound library. […] Additional structural analysis and grouping allowed the compounds to be sorted into 8 distinct backbone families. […] The specificity of the compounds was also determined using four major cysteine proteases (FIG. 2).
AEP—50 nM enzyme was pre-incubated with inhibitor in assay buffer (50 mM Sodium Citrate pH 5.5, 0.1% CHAPS, 60 mM Na2HPO4, 1 mM EDTA) for 10 min at 37° C. The reaction was initiated upon addition of 10 μM Cbz-Ala-Ala-Asn-AMC (Bachem)).

Cathepsin-L = Cathepsin-L (Homo sapiens, UniProt P07711); experiment: Cathepsin-L enzymatic assay (specificity); format: biochemical
Procedure: as §1, §2
Cathepsin-L—100 nM enzyme was pre-incubated with inhibitor in assay buffer (100 mM Sodium Acetate pH 5.5, 1 mM EDTA) for 10 min at 37° C. The reaction was initiated upon addition of 25 μM substrate (D-Val-Leu-Lys-AMC (Bachem)).

Cathepsin-S = biological target: T5, Cathepsin-S (Homo sapiens, UniProt P25774); experiment: Cathepsin-S enzymatic assay (specificity); format: biochemical
T5 construct: purchased Athens Research and Technology
Procedure: as §1, §2
Cathepsin-S—100 nM enzyme was pre-incubated with inhibitor in assay buffer (100 mM NaH2PO4 pH 6.5, 100 mM NaCl) for 10 min at 37° C. The reaction was initiated upon addition of 25 μM substrate (Boc-Val-Leu-Lys-AMC (Bachem)).

Caspase-3 = biological target: T6, Caspase-3 (Homo sapiens, UniProt P42574); experiment: Caspase-3 enzymatic assay (specificity); format: biochemical
T6 construct: purchased Millipore
Procedure: as §1, §2
(§3) Caspase-3 and 8 —The enzyme was pre-incubated with inhibitor in assay buffer (100 mM HEPES pH 7.4, 0.1% CHAPS, 10% Sucrose) for 10 min at 37° C. The reaction was initiated upon addition of 25 μM substrate (Ac-Asp-Glu-Val-Asp-AMC (Bachem)).

Caspase-8 = biological target: T7, Caspase-8 (Homo sapiens, UniProt Q14790); experiment: Caspase-8 enzymatic assay (specificity); format: biochemical
T7 construct: purchased Millipore
Procedure: as §1, §2, §3

Sequence of CYP2C19 (P33261 whole entry): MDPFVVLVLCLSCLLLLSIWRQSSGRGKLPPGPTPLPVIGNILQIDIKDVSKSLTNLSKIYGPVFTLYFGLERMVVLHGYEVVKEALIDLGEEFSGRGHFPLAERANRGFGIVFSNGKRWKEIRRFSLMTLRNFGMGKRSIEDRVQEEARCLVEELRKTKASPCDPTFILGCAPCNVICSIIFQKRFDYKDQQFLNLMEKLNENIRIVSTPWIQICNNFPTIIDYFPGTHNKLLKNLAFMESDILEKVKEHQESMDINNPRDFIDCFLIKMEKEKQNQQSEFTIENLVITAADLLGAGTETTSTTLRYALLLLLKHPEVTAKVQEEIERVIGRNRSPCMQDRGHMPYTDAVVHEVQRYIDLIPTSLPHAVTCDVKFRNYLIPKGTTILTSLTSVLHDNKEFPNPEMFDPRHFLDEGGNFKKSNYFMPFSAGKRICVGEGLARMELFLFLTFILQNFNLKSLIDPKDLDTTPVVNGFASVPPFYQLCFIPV
Sequence of CYP2C9 (P11712 whole entry): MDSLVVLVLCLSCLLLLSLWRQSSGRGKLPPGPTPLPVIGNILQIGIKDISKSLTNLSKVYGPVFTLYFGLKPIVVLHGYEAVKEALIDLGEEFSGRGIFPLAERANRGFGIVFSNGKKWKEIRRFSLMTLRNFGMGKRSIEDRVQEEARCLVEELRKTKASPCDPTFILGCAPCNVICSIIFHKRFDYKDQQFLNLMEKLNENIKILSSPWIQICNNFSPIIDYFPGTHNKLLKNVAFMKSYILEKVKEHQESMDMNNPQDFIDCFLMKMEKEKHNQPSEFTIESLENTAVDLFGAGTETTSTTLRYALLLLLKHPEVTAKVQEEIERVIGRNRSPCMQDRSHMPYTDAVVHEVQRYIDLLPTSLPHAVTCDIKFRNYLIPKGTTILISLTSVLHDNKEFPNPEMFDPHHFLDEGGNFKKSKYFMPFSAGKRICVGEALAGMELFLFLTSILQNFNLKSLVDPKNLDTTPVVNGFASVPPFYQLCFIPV
Sequence of CYP2D6 (P10635 whole entry): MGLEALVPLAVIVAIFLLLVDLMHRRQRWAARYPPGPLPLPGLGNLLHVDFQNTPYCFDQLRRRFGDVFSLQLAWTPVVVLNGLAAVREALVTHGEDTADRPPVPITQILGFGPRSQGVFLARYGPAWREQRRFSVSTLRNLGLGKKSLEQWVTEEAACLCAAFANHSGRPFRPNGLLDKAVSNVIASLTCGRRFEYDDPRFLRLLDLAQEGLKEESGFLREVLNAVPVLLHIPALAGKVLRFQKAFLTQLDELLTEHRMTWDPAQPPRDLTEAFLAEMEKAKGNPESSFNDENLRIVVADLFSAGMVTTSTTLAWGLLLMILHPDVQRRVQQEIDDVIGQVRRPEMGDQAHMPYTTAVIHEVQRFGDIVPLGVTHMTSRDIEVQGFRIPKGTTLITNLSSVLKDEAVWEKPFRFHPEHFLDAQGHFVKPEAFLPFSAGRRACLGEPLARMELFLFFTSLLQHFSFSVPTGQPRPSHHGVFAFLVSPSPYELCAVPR
Sequence of CYP3A4 (P08684 whole entry): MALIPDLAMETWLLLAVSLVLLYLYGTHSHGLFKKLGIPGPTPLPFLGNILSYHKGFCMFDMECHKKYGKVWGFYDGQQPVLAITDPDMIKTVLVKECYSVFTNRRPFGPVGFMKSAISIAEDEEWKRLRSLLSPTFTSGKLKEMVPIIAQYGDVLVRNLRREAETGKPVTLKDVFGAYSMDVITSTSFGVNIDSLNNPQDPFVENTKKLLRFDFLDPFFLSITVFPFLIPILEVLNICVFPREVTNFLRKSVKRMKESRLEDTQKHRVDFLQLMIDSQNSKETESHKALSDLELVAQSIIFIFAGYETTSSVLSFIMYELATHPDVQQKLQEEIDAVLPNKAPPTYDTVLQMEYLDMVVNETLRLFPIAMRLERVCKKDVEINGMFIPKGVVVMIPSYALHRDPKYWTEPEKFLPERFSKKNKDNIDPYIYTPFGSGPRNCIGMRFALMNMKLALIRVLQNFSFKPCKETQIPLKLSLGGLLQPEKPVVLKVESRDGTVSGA
T5 sequence (P25774 115-331): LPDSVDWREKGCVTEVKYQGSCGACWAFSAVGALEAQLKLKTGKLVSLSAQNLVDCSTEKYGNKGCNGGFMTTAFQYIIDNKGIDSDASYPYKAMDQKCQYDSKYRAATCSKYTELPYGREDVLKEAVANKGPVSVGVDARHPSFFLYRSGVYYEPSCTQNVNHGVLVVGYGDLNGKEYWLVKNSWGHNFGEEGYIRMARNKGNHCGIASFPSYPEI
T7 sequence (Q14790 217-374 limits assumed, species assumed): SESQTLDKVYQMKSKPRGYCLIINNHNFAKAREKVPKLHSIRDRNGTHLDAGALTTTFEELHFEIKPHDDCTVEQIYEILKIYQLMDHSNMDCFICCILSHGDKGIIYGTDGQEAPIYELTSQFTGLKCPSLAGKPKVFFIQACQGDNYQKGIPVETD
T7 sequence (Q14790 385-479 limits assumed, species assumed): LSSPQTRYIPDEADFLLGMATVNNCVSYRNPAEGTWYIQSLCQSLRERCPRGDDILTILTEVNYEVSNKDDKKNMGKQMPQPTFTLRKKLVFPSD
Sequence of Cathepsin-L (P07711 114-333, species assumed): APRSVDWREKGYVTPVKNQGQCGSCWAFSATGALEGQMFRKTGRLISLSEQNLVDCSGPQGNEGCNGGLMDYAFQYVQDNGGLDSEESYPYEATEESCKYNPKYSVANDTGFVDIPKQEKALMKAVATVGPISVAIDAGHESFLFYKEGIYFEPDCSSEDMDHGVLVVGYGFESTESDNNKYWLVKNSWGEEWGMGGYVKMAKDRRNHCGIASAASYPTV
T6 sequence (P42574 29-175 limits assumed, species assumed): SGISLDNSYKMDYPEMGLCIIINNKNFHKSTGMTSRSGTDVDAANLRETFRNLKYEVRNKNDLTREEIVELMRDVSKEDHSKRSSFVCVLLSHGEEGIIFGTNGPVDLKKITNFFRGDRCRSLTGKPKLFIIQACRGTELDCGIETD
T6 sequence (P42574 176-277 limits assumed, species assumed): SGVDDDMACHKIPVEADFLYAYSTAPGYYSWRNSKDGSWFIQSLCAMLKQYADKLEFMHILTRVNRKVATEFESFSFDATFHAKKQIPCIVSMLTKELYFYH

Row | Structure (SMILES) | A -> B Papp (Caco-2 monolayer; Caco-2) | B -> A Papp (Caco-2 monolayer; Caco-2) | CYP inhibition, CYP3A4-Midazolam (CYP3A4; test concentration 3 μM) [%] | CYP inhibition, CYP3A4-Midazolam (CYP3A4; test concentration 10 μM) [%] | CYP inhibition, CYP3A-Testosterone (CYP3A; test concentration 3 μM) [%] | CYP inhibition, CYP3A-Testosterone (CYP3A; test concentration 10 μM) [%] | CYP inhibition, CYP2C9 (CYP2C9; test concentration 3 μM) [%] | CYP inhibition, CYP2C9 (CYP2C9; test concentration 10 μM) [%] | CYP inhibition, CYP2D6 (CYP2D6; test concentration 3 μM) [%] | CYP inhibition, CYP2D6 (CYP2D6; test concentration 10 μM) [%] | CYP inhibition, CYP2C19 (CYP2C19; test concentration 3 μM) [%] | CYP inhibition, CYP2C19 (CYP2C19; test concentration 10 μM) [%] | CYP inhibition, CYP1A2 (CYP1A2; test concentration 3 μM) [%] | CYP inhibition, CYP1A2 (CYP1A2; test concentration 10 μM) [%] | cleavage of APP after OGD ([2]; 0.1 μM compound) | also measured
1 | N#CSc1cnc(N)s1 [Compound 10] | – | – | – | – | – | – | – | – | – | – | – | – | – | – | – | IC50 in intact Pala cells [1]: slightly larger IC50 values; AEP activity after addition of reducing agent (reversibility) (AEP): regained a substantial amount of activity; dose dependence of APP cleavage after OGD [2]: dose-dependent decrease; cleavage of APP after OGD ([2]; 1 μM compound): blocked
2 | COc1ccc(N2CCN(C(c3ccc(N(C)C)cc3)c3nnnn3C(C)(C)C)CC2)cc1 (stereo not shown) [Compound 31] | 19.3 10^−6 cm · s^−1 | 17.4 10^−6 cm · s^−1 | −0.9 | 18.1 | 2.5 | 0.7 | 47.8 | 69.2 | 9.9 | 1.4 | 37.7 | 55.7 | 13.5 | 10.3 | blocked | Caco-2 permeability (in words) (Caco-2 monolayer): highly permeable; RE (Caco-2 monolayer; Caco-2): 0.9; Pe [3]: <LLOQ; Mean Remaining Parent (NADPH-free) [4]: 75%; Mean Remaining Parent (with NADPH) ([4]; 30 min of incubation): 12%; Mean Remaining Parent (NADPH-free) [5]: 86%; Mean Remaining Parent (with NADPH) [5]: 16%
3 | CCN(CC)c1ccc(CN2CCc3nc(C)[nH]c(=O)c3C2)c(OC)c1 [Compound 64] | <LLOQ | <LLOQ | 0.6 | 10.1 | 1.5 | −0.1 | 4.6 | 7.9 | 34.6 | 58.3 | 31.6 | 20.4 | 23.7 | 22.2 | blocked | IC50 (purified human AEP): 2.37 µM; selectivity for AEP over Cathepsin-L (Cathepsin-L): over 40 fold; selectivity for AEP over Cathepsin-S (Cathepsin-S): over 40 fold; selectivity for AEP over Caspase-3 (Caspase-3): about 6 fold; selectivity for AEP over Caspase-8 (Caspase-8): over 40 fold
